According to ChEMBL document CHEMBL1201862, “PubChem BioAssay data set” (2004):
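Five concentrations, 48 hours, 96-well plates. At the GI50, growth is halved.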 The source made the active and inactive calls. Rule as the data show it: active = GI50 up to about 1.1 µM and inactive = higher.

How the values were obtained:
Experiment in all cases: NCI anticancer screen, dose series, 48 h
[1] = system: HCC 2998
[2] = system: HT-29
[3] = system: BT-549
[4] = system: SN12C
[5] = system: ACHN
[6] = system: SF-295
[7] = system: K562
[8] = system: UACC-62
[9] = system: OVCAR-8
[10] = system: SNB-19
[11] = system: DU-145
[12] = system: NCI-H226
[13] = system: MOLT-4
[14] = system: T47D
[15] = system: CCRF-CEM
[16] = system: U-251
[17] = system: HCT-15
[18] = system: SR
[19] = system: UACC-257
[20] = system: A498
[21] = system: OVCAR-5
[22] = system: OVCAR-4
[23] = system: NCI-H23
[24] = system: TK-10
[25] = system: HL-60
[26] = system: UO-31
[27] = system: LOX IMVI
[28] = system: HCT-116
[29] = system: Malme-3M
[30] = system: EKVX
[31] = system: MDA-MB-435
[32] = system: KM12
[33] = system: SK-OV-3
[34] = system: OVCAR-3
[35] = system: HOP-62
[36] = system: Hs-578T
[37] = system: SW-620
[38] = system: SK-MEL-28
[39] = system: HOP-92
[40] = system: MCF7
[41] = system: SK-MEL-5
[42] = system: SK-MEL-2
[43] = system: A549
[44] = system: CAKI-1
[45] = system: MDA-N
[46] = system: PC-3
[47] = system: 786-0
[48] = system: MDA-MB-231
[49] = system: RXF 393
[50] = system: SF-539
[51] = system: IGROV-1
[52] = system: NCI-H522
[53] = system: NCI-H460
[54] = system: SF-268
[55] = system: M14
[56] = system: RPMI-8226
[57] = system: NCI/ADR-RES
[58] = system: SNB-75
[59] = system: COLO 205

## S=C=NCc1ccccc1 [BENZYL ISOTHIOCYANATE]
[1]
  GI50: 8.28 µM (inactive)
[2]
  GI50: 2.47 µM (inactive)
[3]
  GI50: 2.32 µM (inactive)
[4]
  GI50: 3.7 µM (inactive)
[5]
  GI50: 3.99 µM (inactive)
[6]
  GI50: 4.82 µM (inactive)
[7]
  GI50: 0.697 µM (active)
[8]
  GI50: 3.32 µM (inactive)
[9]
  GI50: 2.62 µM (inactive)
[10]
  GI50: 4.71 µM (inactive)
[11]
  GI50: 4.13 µM (inactive)
[12]
  GI50: 10.1 µM (inactive)
[13]
  GI50: 1.31 µM (inactive)
[14]
  GI50: 10.4 µM (inactive)
[15]
  GI50: 454 nM (active)
[16]
  GI50: 3.07 µM (inactive)
[17]
  GI50: 3.36 µM
[18]
  GI50: 0.794 µM (active)
[19]
  GI50: 3.15 µM (inactive)
[20]
  GI50: 4.13 µM (inactive)
[21]
  GI50: 10.9 µM (inactive)
[22]
  GI50: 3.8 µM (inactive)
[23]
  GI50: 3.81 µM (inactive)
[24]
  GI50: 4.37 µM (inactive)
[25]
  GI50: 1.86 µM (inactive)
[26]
  GI50: 2.72 µM (inactive)
[27]
  GI50: 0.796 µM (active)
[28]
  GI50: 0.604 µM (active)
[29]
  GI50: 3.1 µM (inactive)
[30]
  GI50: 14.6 µM (inactive)
[31]
  GI50: 2.16 µM (inactive)
[32]
  GI50: 0.895 µM (active)
[33]
  GI50: 11 µM (inactive)
[34]
  GI50: 2.75 µM (inactive)
[35]
  GI50: 3.05 µM (inactive)
[36]
  GI50: 7.08 µM (inactive)
[37]
  GI50: 2.35 µM (inactive)
[38]
  GI50: 3.08 µM (inactive)
[39]
  GI50: 5.77 µM (inactive)
[40]
  GI50: 3.23 µM (inactive)
[41]
  GI50: 2.81 µM (inactive)
[42]
  GI50: 6.35 µM (inactive)
[43]
  GI50: 4.49 µM (inactive)
[44]
  GI50: 1.85 µM (inactive)
[45]
  GI50: 1.18 µM (inactive)
[46]
  GI50: 4.1 µM (inactive)
[47]
  GI50: 0.422 µM (active)
[48]
  GI50: 1.8 µM (inactive)
[49]
  GI50: 1.62 µM (inactive)
[50]
  GI50: 1.82 µM (inactive)
[51]
  GI50: 2.51 µM (inactive)
[52]
  GI50: 1.22 µM (inactive)
[53]
  GI50: 6.27 µM (inactive)
[54]
  GI50: 3.35 µM (inactive)
[55]
  GI50: 1.67 µM (inactive)
[56]
  GI50: 0.456 µM (active)
[57]
  GI50: 3.43 µM (inactive)
[58]
  GI50: 4.27 µM (inactive)
[59]
  GI50: 1.51 µM (inactive)

## C/C=C/C=C/C1=NN(c2cccc(S(=O)(=O)O)c2)C2(C1)C(Cl)C(=O)N2c1nc2ccccc2s1 (stereo not drawn)
[1]
  GI50: 16.9 µM (inactive)
[2]
  GI50: 17 µM (inactive)
[3]
  GI50: 17.7 µM (inactive)
[4]
  GI50: 14.9 µM (inactive)
[5]
  GI50: 15.4 µM (inactive)
[6]
  GI50: 16.3 µM (inactive)
[7]
  GI50: 28.8 µM (inactive)
[8]
  GI50: 13 µM (inactive)
[9]
  GI50: 22 µM (inactive)
[10]
  GI50: 15.2 µM (inactive)
[11]
  GI50: 13.4 µM (inactive)
[12]
  GI50: 14.3 µM (inactive)
[13]
  GI50: 28.6 µM (inactive)
[14]
  GI50: 4.6 µM (inactive)
[15]
  GI50: 3010 nM (inactive)
[16]
  GI50: 9.55 µM (inactive)
[17]
  GI50: 14.5 µM
[18]
  GI50: 18.9 µM (inactive)
[19]
  GI50: 15.4 µM (inactive)
[20]
  GI50: 16.3 µM (inactive)
[21]
  GI50: 17.4 µM (inactive)
[22]
  GI50: 13.7 µM (inactive)
[23]
  GI50: 15.1 µM (inactive)
[24]
  GI50: 14.3 µM (inactive)
[25]
  GI50: 15.6 µM (inactive)
[26]
  GI50: 2 µM (inactive)
[27]
  GI50: 7.85 µM (inactive)
[28]
  GI50: 14.4 µM (inactive)
[29]
  GI50: 17.1 µM (inactive)
[30]
  GI50: 16.4 µM (inactive)
[31]
  GI50: 13.4 µM (inactive)
[32]
  GI50: 13.6 µM (inactive)
[33]
  GI50: 19.2 µM (inactive)
[34]
  GI50: 8.36 µM (inactive)
[35]
  GI50: 14.7 µM (inactive)
[36]
  GI50: 25.2 µM (inactive)
[37]
  GI50: 20.2 µM (inactive)
[38]
  GI50: 20.6 µM (inactive)
[39]
  GI50: 24.5 µM (inactive)
[40]
  GI50: 13.4 µM (inactive)
[41]
  GI50: 12.2 µM (inactive)
[42]
  GI50: 15.6 µM (inactive)
[43]
  GI50: 14.6 µM (inactive)
[44]
  GI50: 8.24 µM (inactive)
[45]
  GI50: 15.5 µM (inactive)
[46]
  GI50: 13.5 µM (inactive)
[47]
  GI50: 13.8 µM (inactive)
[48]
  GI50: 14.5 µM (inactive)
[49]
  GI50: 6.3 µM (inactive)
[50]
  GI50: 12.6 µM (inactive)
[51]
  GI50: 11 µM (inactive)
[52]
  GI50: 4.22 µM (inactive)
[53]
  GI50: 15.4 µM (inactive)
[54]
  GI50: 16.6 µM (inactive)
[55]
  GI50: 15.1 µM (inactive)
[56]
  GI50: 17.3 µM (inactive)
[57]
  GI50: 27.2 µM (inactive)
[58]
  GI50: 12.4 µM (inactive)
[59]
  GI50: 18.3 µM (inactive)
